Source: ChEMBL document CHEMBL1201862, “PubChem BioAssay data set” (2004)
Active and inactive are the calls of the source. No stated cut-off is given here; in the data, actives have a measured IC50 and inactives only a lower limit.

Molecular target: Envelope glycoprotein gp160 (Human immunodeficiency virus 1, UniProt Q6QLK5)
Experiment: cell-free HIV fusion peptide-binding blockers – biochemical, uHTS, fluorescence dequenching, […] (AID 1986)

Chain of Envelope glycoprotein gp160 (Q6QLK5 whole entry, the tested form may be a part): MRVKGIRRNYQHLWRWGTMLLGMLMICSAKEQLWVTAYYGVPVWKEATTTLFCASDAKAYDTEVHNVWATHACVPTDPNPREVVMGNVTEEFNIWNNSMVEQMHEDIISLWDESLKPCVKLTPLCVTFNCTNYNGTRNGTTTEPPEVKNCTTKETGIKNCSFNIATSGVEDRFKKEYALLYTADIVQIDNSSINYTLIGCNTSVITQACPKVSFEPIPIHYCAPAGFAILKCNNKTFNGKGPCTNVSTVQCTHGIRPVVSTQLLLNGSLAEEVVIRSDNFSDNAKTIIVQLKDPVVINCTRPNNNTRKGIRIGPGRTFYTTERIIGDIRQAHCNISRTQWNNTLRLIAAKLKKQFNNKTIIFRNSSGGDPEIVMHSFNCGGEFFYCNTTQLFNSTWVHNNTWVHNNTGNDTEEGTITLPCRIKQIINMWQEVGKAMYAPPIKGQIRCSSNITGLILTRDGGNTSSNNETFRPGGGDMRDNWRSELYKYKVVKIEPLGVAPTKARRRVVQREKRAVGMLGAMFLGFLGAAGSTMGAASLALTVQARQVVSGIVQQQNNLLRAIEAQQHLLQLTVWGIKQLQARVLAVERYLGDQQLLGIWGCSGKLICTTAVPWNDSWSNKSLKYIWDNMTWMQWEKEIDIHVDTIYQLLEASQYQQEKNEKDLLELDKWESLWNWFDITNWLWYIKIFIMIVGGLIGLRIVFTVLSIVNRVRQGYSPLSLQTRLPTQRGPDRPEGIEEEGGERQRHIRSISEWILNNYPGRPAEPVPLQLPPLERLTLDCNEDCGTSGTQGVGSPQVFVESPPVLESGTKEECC

Row | Structure (SMILES) | IC50
1 | COc1ccc(NC(=O)c2cnn3c(O)cc(C4CCN(C(=O)OC(C)(C)C)CC4)nc23)cc1Cl | 16.6 µM (active)
2 | O=C(O)CSCC(=O)N(Cc1ccccc1)c1nc(-c2ccccc2)c(-c2ccccc2)s1 | 13.3 µM (active)
